# pIC50: −log10 of the molar value.
# Biological target: RAF proto-oncogene serine/threonine-protein kinase (Homo sapiens, UniProt P04049)
# Assay: Inhibition of c-Raf
# Conditions: not given; call rule not given here
# RAF proto-oncogene serine/threonine-protein kinase, sequence (P04049 whole entry): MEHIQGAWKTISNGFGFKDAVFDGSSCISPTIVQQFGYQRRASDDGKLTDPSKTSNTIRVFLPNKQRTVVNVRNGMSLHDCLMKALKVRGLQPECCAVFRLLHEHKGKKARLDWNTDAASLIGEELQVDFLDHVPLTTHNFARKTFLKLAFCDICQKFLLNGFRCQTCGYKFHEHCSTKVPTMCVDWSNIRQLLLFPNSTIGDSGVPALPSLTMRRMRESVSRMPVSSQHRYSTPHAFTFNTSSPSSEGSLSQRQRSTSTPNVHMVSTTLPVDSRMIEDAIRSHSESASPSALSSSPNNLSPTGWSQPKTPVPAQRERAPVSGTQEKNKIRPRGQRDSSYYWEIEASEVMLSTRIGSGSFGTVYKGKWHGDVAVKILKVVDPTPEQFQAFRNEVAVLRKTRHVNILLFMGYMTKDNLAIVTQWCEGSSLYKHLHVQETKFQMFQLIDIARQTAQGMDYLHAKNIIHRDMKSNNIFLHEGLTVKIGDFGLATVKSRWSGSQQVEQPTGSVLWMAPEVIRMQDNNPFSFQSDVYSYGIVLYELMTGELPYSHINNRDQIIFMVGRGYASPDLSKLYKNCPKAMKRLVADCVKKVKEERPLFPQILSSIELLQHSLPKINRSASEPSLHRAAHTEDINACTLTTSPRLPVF
row,SMILES,pIC50
1,CNc1ncnc2c(CNc3cc(NC(=O)c4cc(=O)c5ccccc5o4)ccc3C)cccc12,6.12

# Tested on: HS27
# Assay: Cytotoxicity against human HS27 cells after 24 hrs by MTT assay
# Format: cell-based
# Conditions: HS27, 24 h
row,SMILES,pIC50
1,CNc1ncnc2c(CNc3cc(NC(=O)c4ccc5c(c4)OCCO5)ccc3C)cccc12,5.92
2,CNc1ncnc2c(CNc3cc(NC(=O)c4cc(=O)c5ccccc5o4)ccc3C)cccc12,6.64

# Tested on: not listed separately
# Assay: Cytotoxicity against human A375P cells at 100 uM after 24 hrs by MTT assay
# Format: functional, cell-based
# Conditions: not given
row,SMILES,IC50
1,CNc1ncnc2c(CNc3cc(NC(=O)c4cc(C)oc4C)ccc3C)cccc12,Not Active
2,CNc1ncnc2c(CNc3cc(NC(=O)c4ccc(-c5ccc(OC)cc5)o4)ccc3C)cccc12,Not Active
3,CNc1ncnc2c(CNc3cc(NC(=O)c4ccc(OC)c5ccc(OC)cc45)ccc3C)cccc12,Not Active
4,CNc1ncnc2c(CNc3cc(NC(=O)c4cc5ccccc5s4)ccc3C)cccc12,Not Active
5,CNc1ncnc2c(CNc3cc(NC(=O)c4ccc(N)c(C(F)(F)F)c4)ccc3C)cccc12,Not Active
6,CNc1ncnc2c(CNc3cc(NC(=O)c4ccc(Cl)c(-n5cnc(C)c5)c4)ccc3C)cccc12,Not Active
7,CNc1ncnc2c(CNc3cc(NC(=O)c4ccncc4Cl)ccc3C)cccc12,Not Active
8,CNc1ncnc2c(CNc3cc(NC(=O)c4cnccn4)ccc3C)cccc12,Not Active

# Biological target: Serine/threonine-protein kinase B-raf (Homo sapiens, UniProt P15056, V600E)
# Sequence (P15056 2-766 V600E limits assumed): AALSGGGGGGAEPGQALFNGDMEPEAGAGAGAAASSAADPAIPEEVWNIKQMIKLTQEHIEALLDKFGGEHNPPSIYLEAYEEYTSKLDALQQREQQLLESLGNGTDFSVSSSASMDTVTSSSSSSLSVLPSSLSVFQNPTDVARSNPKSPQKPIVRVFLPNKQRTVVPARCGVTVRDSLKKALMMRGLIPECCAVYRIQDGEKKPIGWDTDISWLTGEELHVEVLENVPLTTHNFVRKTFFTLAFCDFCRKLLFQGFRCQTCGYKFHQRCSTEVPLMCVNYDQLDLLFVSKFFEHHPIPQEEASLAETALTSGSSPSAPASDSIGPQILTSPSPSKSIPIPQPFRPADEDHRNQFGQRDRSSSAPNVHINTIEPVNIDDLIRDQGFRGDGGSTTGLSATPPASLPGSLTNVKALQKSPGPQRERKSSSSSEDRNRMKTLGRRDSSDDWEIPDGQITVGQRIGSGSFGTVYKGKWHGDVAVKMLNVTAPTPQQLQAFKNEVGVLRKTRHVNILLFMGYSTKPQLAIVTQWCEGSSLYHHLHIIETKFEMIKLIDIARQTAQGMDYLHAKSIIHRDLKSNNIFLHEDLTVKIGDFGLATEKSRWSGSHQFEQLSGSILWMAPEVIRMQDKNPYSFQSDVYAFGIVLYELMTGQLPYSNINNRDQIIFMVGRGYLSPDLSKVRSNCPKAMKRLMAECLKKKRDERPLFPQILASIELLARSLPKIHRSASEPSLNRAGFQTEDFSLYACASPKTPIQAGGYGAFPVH
# Assay: Inhibition of b-Raf V600E mutant
# Conditions: not given
row,SMILES,pIC50
1,CNc1ncnc2c(CNc3cc(NC(=O)c4cc(=O)c5ccccc5o4)ccc3C)cccc12,4.71

# Tested on: not listed separately
# Assay: Cytotoxicity against human A375P cells after 24 hrs by MTT assay
# Format: functional, cell-based
# Conditions: not given
row,SMILES,pIC50
1,CNc1ncnc2c(CNc3cc(NC(=O)c4ccc(-c5cc(C(F)(F)F)ccc5Cl)o4)ccc3C)cccc12,4.83
2,CNc1ncnc2c(CNc3cc(NC(=O)c4ccc(Br)s4)ccc3C)cccc12,4.98
3,CNc1ncnc2c(CNc3cc(NC(=O)c4cc(C)on4)ccc3C)cccc12,5.92
4,CNc1ncnc2c(CNc3cc(NC(=O)c4cscn4)ccc3C)cccc12,5.72
5,CNc1ncnc2c(CNc3cc(NC(=O)c4ccc5c(c4)OCCO5)ccc3C)cccc12,6.86
6,CNc1ncnc2c(CNc3cc(NC(=O)c4cc(=O)c5ccccc5o4)ccc3C)cccc12,8.22
7,CNc1ncnc2c(CNc3cc(NC(=O)c4cccc(C(F)(F)F)c4)ccc3C)cccc12,6.36
8,CNc1ncnc2c(CNc3cc(NC(=O)c4cc(C(F)(F)F)cc(C(F)(F)F)c4)ccc3C)cccc12,6.11
9,CNc1ncnc2c(CNc3cc(NC(=O)c4ccc(Cl)c(C(F)(F)F)c4)ccc3C)cccc12,5.01
10,CNc1ncnc2c(CNc3cc(NC(=O)c4ccnnc4)ccc3C)cccc12,4.21
11,CNC(=O)c1cc(Oc2ccc(NC(=O)Nc3ccc(Cl)c(C(F)(F)F)c3)cc2)ccn1 [SORAFENIB],5.25
